In brackets after ≈: the same amount, converted by molar mass.
Key:
[1] = (§1) Survivors of CDF1 mice on day 4 after 1st injection of compound 80 at mg/kg in six mice; 6/6; format: functional, Mus musculus
[2] = (§2) Survivors of CDF1 mice on day 4 after 1st injection of compound at 40 mg/kg in six mice; 6/6; format: functional, Mus musculus
L1210 = test: Concentration required to inhibit the growth of L1210 leukemia cells; format: functional; details: Mus musculus, read-out: ED50 (the source's name)
P388 [3] = test: Percent ratio of the medium survival time for P388 murine leukemia in CDF1 mice at 5 mg/kg; format: functional, Mus musculus
[4] = Survivors of CDF1 mice on day 4 after 1st injection of compound at 5 mg/kg in six mice; 6/6; format: functional, Mus musculus
[5] = Survivors of CDF1 mice on day 4 after 1st injection of compound at 20 mg/kg in six mice; 6/6; format: functional, Mus musculus
P388 [6] = test: Percent ratio of the medium survival time for P388 murine leukemia in CDF1 mice at 10 mg/kg; format: functional, Mus musculus
P388 [7] = test: Percent ratio of the medium survival time for P388 murine leukemia in CDF1 mice at 20 mg/kg; format: functional, Mus musculus
P388 [8] = test: Percent ratio of the medium survival time for P388 murine leukemia in CDF1 mice at 80 mg/kg; format: functional, Mus musculus
[9] = Survivors of CDF1 mice on day 4 after 1st injection of compound at 10 mg/kg in six mice; 6/6; format: functional, Mus musculus
P388 [10] = test: Percent ratio of the medium survival time for P388 murine leukemia in CDF1 mice at 40 mg/kg; format: functional, Mus musculus
P388 [11] = test: Percent ratio of the medium survival time for P388 murine leukemia in CDF1 mice at 2.5 mg/kg; format: functional, Mus musculus
[12] = Survivors of CDF1 mice on day 4 after 1st injection of compound at 2.5 mg/kg in seven mice; 7/7; format: functional, Mus musculus
[13] = Survivors of CDF1 mice on day 4 after 1st injection of compound 40 at mg/kg in seven mice; 5/7; format: functional, Mus musculus
P388 [14] = test: Percent ratio of the medium survival time for P388 murine leukemia in CDF1 mice at 1.25 mg/kg; format: functional, Mus musculus
[15] = Survivors of CDF1 mice on day 4 after 1st injection of compound at 1.25 mg/kg in seven mice; 7/7; format: functional, Mus musculus
[16] = Survivors of CDF1 mice on day 4 after 1st injection of compound at 20 mg/kg in seven mice; 7/7; format: functional, Mus musculus
[17] = Survivors of CDF1 mice on day 4 after 1st injection of compound at 10 mg/kg in seven mice; 7/7; format: functional, Mus musculus
[18] = Survivors of CDF1 mice on day 4 after 1st injection of compound at 5 mg/kg in seven mice; 7/7; format: functional, Mus musculus
P388 [19] = test: as §1; format: functional, Mus musculus
P388 [20] = test: as §2; format: functional, Mus musculus
[21] = Survivors of CDF1 mice on day 4 after 1st injection of compound 25 at mg/kg in six mice; 6/6; format: functional, Mus musculus
P388 [22] = test: Percent ratio of the medium survival time for P388 murine leukemia in CDF1 mice at 12.5 mg/kg; format: functional, Mus musculus
[23] = Survivors of CDF1 mice on day 4 after 1st injection of compound at 3.12 mg/kg in six mice; 6/6; format: functional, Mus musculus
[24] = Survivors of CDF1 mice on day 4 after 1st injection of compound at 6.25 mg/kg in six mice; 6/6; format: functional, Mus musculus
P388 [25] = test: Percent ratio of the medium survival time for P388 murine leukemia in CDF1 mice at 3.12 mg/kg; format: functional, Mus musculus
P388 [26] = test: Percent ratio of the medium survival time for P388 murine leukemia in CDF1 mice at 25 mg/kg; format: functional, Mus musculus
P388 [27] = test: Percent ratio of the medium survival time for P388 murine leukemia in CDF1 mice at 6.25 mg/kg; format: functional, Mus musculus
[28] = Survivors of CDF1 mice on day 4 after 1st injection of compound at 12.5 mg/kg in six mice; 6/6; format: functional, Mus musculus
[29] = Survivors of CDF1 mice on day 4 after 1st injection of compound at 6 mg/kg in six mice; 6/6; format: functional, Mus musculus
[30] = Survivors of CDF1 mice on day 4 after 1st injection of compound at 0.75 mg/kg in six mice; 6/6; format: functional, Mus musculus
P388 [31] = test: Percent ratio of the medium survival time for P388 murine leukemia in CDF1 mice at 6 mg/kg; format: functional, Mus musculus
[32] = Survivors of CDF1 mice on day 4 after 1st injection of compound 12 at mg/kg in six mice; 6/6; format: functional, Mus musculus
[33] = Survivors of CDF1 mice on day 4 after 1st injection of compound at 1.5 mg/kg in six mice; 6/6; format: functional, Mus musculus
P388 [34] = test: Percent ratio of the medium survival time for P388 murine leukemia in CDF1 mice at 1.5 mg/kg; format: functional, Mus musculus
P388 [35] = test: Percent ratio of the medium survival time for P388 murine leukemia in CDF1 mice at 12 mg/kg; format: functional, Mus musculus
[36] = Survivors of CDF1 mice on day 4 after 1st injection of compound at 3 mg/kg in six mice; 6/6; format: functional, Mus musculus
P388 [37] = test: Percent ratio of the medium survival time for P388 murine leukemia in CDF1 mice at 0.75 mg/kg; format: functional, Mus musculus
P388 [38] = test: Percent ratio of the medium survival time for P388 murine leukemia in CDF1 mice at 3 mg/kg; format: functional, Mus musculus

SMILES | Survival [1] | Survival [2] | EC50 (L1210) [µg/mL] | T/C (P388 [3]) [%] | Survival [4] | Survival [5] | T/C (P388 [6]) [%] | T/C (P388 [7]) [%] | Survival [9] | T/C (P388 [10]) [%] | also measured
CN(C)CCNc1ccc(NCCNCCO)c2c1C(=O)c1ccccc1C2=O | 6 | 6 | 0.64 (≈ 1.61 µM) | 144 | 6 | 6 | 151 | 173 | 6 | 192 | T/C (P388 [8]): 192%
O=C1c2ccccc2C(=O)c2c(NCCN3CCOCC3)ccc(NCCNCCO)c21 | 6 | 6 | 2.36 (≈ 5.38 µM) |  | 6 | 6 | 132 |  | 6 |  | 
NCCNc1ccc(NCCNCCO)c2c1C(=O)c1ccccc1C2=O |  |  | 2.38 (≈ 6.46 µM) | 200 |  |  | 300 | 300 |  | 80 | T/C (P388 [11]): 180%; Survival [12]: 7; Survival [13]: 5; T/C (P388 [14]): 170%; Survival [15]: 7; Survival [16]: 7; Survival [17]: 7; Survival [18]: 7
O=C1c2ccccc2C(=O)c2c(NCCNCCO)ccc(NCCO)c21 | 6 | 6 | 12.3 (≈ 33.3 µM) | 115 | 6 | 6 | 125 | 142 | 6 | 127 | T/C (P388 [8]): 144%
CC(C)(CO)NCCNc1ccc(NCCNCCO)c2c1C(=O)c1ccccc1C2=O |  |  | 1.48 (≈ 3.36 µM) |  | 6 | 6 | 151 |  | 6 |  | Survival (P388 [19]): 6; Survival (P388 [20]): 6
O=C1c2ccccc2C(=O)c2c(NCCNCCO)ccc(NCCNCCO)c21 [AMETANTRONE] |  |  | 2.54 (≈ 6.16 µM) |  |  |  |  |  |  |  | Survival [21]: 6; T/C (P388 [22]): 300%; Survival [23]: 6; Survival [24]: 6; T/C (P388 [25]): 200%; T/C (P388 [26]): 200%; T/C (P388 [27]): 240%; Survival [28]: 6
O=C1c2c(O)ccc(O)c2C(=O)c2c(NCCNCCO)ccc(NCCNCCO)c21 [MITOXANTRONE] |  |  |  |  |  |  |  |  |  |  | Survival [29]: 6; Survival [30]: 6; T/C (P388 [31]): 192%; Survival [32]: 6; Survival [33]: 6; T/C (P388 [34]): 201%; T/C (P388 [35]): 118%; Survival [36]: 6; T/C (P388 [37]): 209%; T/C (P388 [38]): 288%

— ChEMBL document CHEMBL1124546, “Synthesis of unsymmetrically substituted 1,4-bis[(aminoalkyl)amino]anthracene-9,10-diones as potential antileukemic agents” (1989)
